Reference: PMC10587737, “Dracorhodin targeting CMPK2 attenuates inflammation: A novel approach to sepsis therapy” (Clinical and Translational Medicine, 2023)

Tests used:
[1] = molecular target: T1, purified CMPK2 protein (WT) (Homo sapiens, UniProt Q5EBM0); assay: Microscale thermophoresis (MST) binding to CMPK2
T1 construct: the N‐terminus was truncated by 22 amino acids; 6xHis (C); made in house; host or cells: FreeStyle 293-F cells (pTT5 vector)
T1 sequence (Q5EBM0 22-449): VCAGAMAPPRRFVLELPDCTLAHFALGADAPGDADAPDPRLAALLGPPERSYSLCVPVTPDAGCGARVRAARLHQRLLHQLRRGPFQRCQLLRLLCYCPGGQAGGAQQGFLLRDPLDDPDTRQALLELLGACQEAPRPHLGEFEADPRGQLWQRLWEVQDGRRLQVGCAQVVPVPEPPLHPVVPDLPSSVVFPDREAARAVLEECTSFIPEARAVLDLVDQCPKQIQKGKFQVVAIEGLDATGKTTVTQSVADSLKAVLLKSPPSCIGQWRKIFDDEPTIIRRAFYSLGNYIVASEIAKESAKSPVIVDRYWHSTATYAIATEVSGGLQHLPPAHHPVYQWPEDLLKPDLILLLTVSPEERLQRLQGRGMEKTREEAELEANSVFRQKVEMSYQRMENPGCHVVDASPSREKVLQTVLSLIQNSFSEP
Procedure: The MST assay is an emerging technique used to quantitatively elucidate binding. The binding parameter between CMPK2 and DP was measured using MST on a Monolith NT.115 system (Germany). CMPK2 was fluorescently labeled with the Monolith NT Protein Labeling Kit RED (L018, NanoTemper Technologies GmbH, Munich, Germany) according to the manufacturer's instructions. The Monolith NT.115 system was used with Monolith NT.115 standard capillaries (M0-[…]). MST assay buffer was used to dilute the labeled CMPK2 to 2 μM. Sixteen dilutions (1:1) of the ligand were prepared using the same buffer, starting at a concentration of 10 μM. An equivalent volume of the labeled CMPK2 was added to each of the dilutions and loaded into Monolith NT.115 standard treated capillaries (Nano Temper Technologies), which were used to measure the MST trace at a temperature of 27°C. The experimental parameters were adjusted to medium MST power and 40% LED/excitation power. The binding and dissociation constants (Kd) were evaluated and calculated using M0-Affinity analysis software version 2.1.3 (Nano Temper Technologies) for the ligand.

[2] = system: LPS-induced septic shock in Cmpk2^∆DMye mice; assay: LPS-induced septic shock in myeloid-specific Cmpk2-deficient mice; type: in vivo, mouse; settings: DP 40 mg/kg, LPS 20 mg/kg, 72 h
Procedure: The C57BL/6J mice used in the studies were obtained from the Model Animal Research Center of Shanghai University of Traditional Chinese Medicine. All animals were housed under a 12-hr light/dark cycle at 22-24°C with unrestricted access to food and water for the duration of the experiment except during fasting tests. Myeloid-specific Cmpk2-deficient (Cmpk2^DMye) mice were donated by Prof. Huazhang An from Shandong Provincial Key Laboratory for Rheumatic Disease and Translational Medicine. All animal experiments were approved by the Regional Ethics Committee of Shanghai University of Traditional Chinese Medicine.
Sepsis was induced by intraperitoneal injection of 8- to 12-week-old gender-matched wild-type mice with LPS (E. coli O111:B4, Sigma-Aldrich) at 20 mg per kg body weight. Mouse survival was monitored every 1 h after injection for a total of 72 h. In a separate experiment, mice were treated with the same dose of LPS, and immune sera were collected 6 h post injection. Then, the abdominal cavity was washed with PBS. The levels of IL-1β and TNF-α in serum and peritoneal lavage ﬂuid were determined by ELISA. Then, the livers, kidneys and lungs were immediately removed and washed in ice-cold PBS. They were fixed with 4% paraformaldehyde, which was used for hematoxylin-eosin (H&E), Masson staining and Sirius red staining.

CMPK2 = molecular target: T2, CMPK2 (Homo sapiens, UniProt Q5EBM0); assay: CMPK2 kinase activity assay (ADP-GLO); type: biochemical
T2 sequence (Q5EBM0 22-449): T1 sequence (Q5EBM0 22-449)
Procedure: The range of concentrations used to investigate the effect of small‐molecule ligands on CMPK2 activity was 0.1–150 μM. Each data point contains three biological replicates.
CMPK2 activity was measured by the ADP‐GLO kinase assay according to the guidelines specified in the manufacturer's instructions. In the activity assay, the amount of ADP formed in the CMPK2 reaction was equal to the ATP consumption and proportional to the increase in luminescence generated in the luciferase reaction, which is the experimental principle shown in Figure 1I.

BMDMs = assay: Mitochondrial membrane potential (JC-1) and mtROS (MitoSOX); type: cell-based, mouse; settings: DP 12 h, LPS priming, ATP
Procedure: The treated bone marrow‐derived macrophages (BMDMs) and JC‐1 working solution were incubated in a cell incubator for 30 min. At the end of the warm incubation, the cells were washed three times with PBS, and images were captured with a Harmony 4.8 (PerkinElmer). Meanwhile, the stained BMDMs were quantified by flow cytometry.
For mitochondrial ROS (mtROS) measurement, according to the instruction guidelines, a diluted 5 μM MitoSOX working solution was incubated with treated BMDMs in a cell incubator for 10 min according to the instructional guidelines. The BMDMs were gently washed with warm buffer to remove the working solution. The images were captured using Harmony 4.8 (PerkinElmer). Meanwhile, the stained BMDMs were quantified by flow cytometry.

[3] = system: ASC oligomerization in BMDMs; assay: ASC oligomerization assay; type: cell-based, mouse; settings: DP 12 h before or 1 h after LPS; ATP/Nigericin
Procedure: BMDMs were seeded at 1×10^6 cells/ml in 6-well plates. After cell adherence, BMDMs were treated with different concentrations of DP. The following day, the medium was replaced, and the cells were primed with 200 ng/ml LPS for 4 h and then stimulated with Nigericin or ATP for 45 min. BMDMs were primed with 200 ng/ml LPS for 4 h. The cells were treated with DP for 1 h and then stimulated with Nigericin or ATP for 45 min. The supernatant was removed, the cells were rinsed in ice-cold PBS, and then, the cells were lysed with NP-40 for 30 min. Lysates were centrifuged at 6000×g for 10 min at 4°C. The pellets were washed twice in 200 μl of ice-cold PBS and resuspended in 200 μl of PBS. Then, 2 mM disuccinimidyl suberate (DSS) was added to the resuspended pellets, which were incubated at room temperature for 30 min with rotation. Samples were then centrifuged at 6000×g for 10 min at 4°C. The cross-linked pellets were resuspended in 40 μl of 2× loading buffer and then boiled and analyzed by immunoblotting.

**Q.** `COc1c2ccc(-c3ccccc3)oc-2cc(=O)c1C` [compound 73, Dracohodin perochlorate] was tested. Which Kd [1] did it give?
**A.** The Kd was 350 ± 34.9 nM.

**Q.** What about the survival rate [2] of the same compound?
**A.** Its survival rate is “did not further improve”.

**Q.** And the CMPK2 activity (CMPK2; 1 mM DP)?
**A.** Its CMPK2 activity is “completely inhibited”.

**Q.** And the IC50 (CMPK2; kinase activity assay, experimental triplicates, read-out: IC50 with respect to CMPK2)?
**A.** Its IC50 is 1340 nM.

**Q.** And the inhibition at 10 µM (CMPK2; read-out: CMPK2 inhibition)?
**A.** Its inhibition at 10 µM is over 50%.

**Q.** And the mitochondrial membrane potential (BMDMs)?
**A.** Its mitochondrial membrane potential is “significantly reversed”.

**Q.** What about the mtROS production (BMDMs) of the same compound?
**A.** The mtROS production was “inhibited”.

**Q.** And the ASC oligomerization [3]?
**A.** Its ASC oligomerization is “blocked”.
